Reference: ChEMBL document CHEMBL5360570, “Discovery of pyrazolo[3,4-b]pyridine derivatives as novel and potent Mps1 inhibitors for the treatment of cancer” (Eur J Med Chem, 2023)
pIC50: −log10 of the molar value.

Assays:
[1] = target: T1, Dual specificity protein kinase TTK (Homo sapiens, UniProt P33981); assay: Inhibition of Mps1 (unknown origin) pretreated for 10 mins followed by substrate addition and measured after 60 mins in presence of ATP by ADP-glo kinase assay
T1 sequence (P33981 whole entry): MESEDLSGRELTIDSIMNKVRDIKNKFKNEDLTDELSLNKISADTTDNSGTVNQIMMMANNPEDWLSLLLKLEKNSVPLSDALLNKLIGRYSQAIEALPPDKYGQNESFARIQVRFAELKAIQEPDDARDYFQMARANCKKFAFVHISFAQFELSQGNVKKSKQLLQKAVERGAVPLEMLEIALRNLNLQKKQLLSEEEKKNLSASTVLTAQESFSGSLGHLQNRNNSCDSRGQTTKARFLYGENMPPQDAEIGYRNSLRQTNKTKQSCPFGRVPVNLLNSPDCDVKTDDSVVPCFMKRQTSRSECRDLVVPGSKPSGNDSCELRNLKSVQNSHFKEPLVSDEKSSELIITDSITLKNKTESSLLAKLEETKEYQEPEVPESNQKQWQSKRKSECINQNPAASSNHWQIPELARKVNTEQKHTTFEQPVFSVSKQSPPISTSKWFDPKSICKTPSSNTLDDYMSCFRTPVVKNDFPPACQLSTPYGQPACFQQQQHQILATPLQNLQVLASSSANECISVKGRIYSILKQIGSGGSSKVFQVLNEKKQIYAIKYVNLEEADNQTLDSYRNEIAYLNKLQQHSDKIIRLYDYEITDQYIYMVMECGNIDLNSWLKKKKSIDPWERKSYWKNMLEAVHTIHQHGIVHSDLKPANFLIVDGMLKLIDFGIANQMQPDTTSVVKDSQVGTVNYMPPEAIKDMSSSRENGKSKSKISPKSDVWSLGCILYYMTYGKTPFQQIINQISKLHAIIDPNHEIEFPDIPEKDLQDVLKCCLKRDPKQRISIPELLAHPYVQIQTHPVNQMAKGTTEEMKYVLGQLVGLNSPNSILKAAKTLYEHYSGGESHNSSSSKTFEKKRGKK

[2] = system: MDA-MB-468; assay: Antiproliferative activity against human MDA-MB-468 cells assessed inhibition of cell growth at 2 uM incubated for 72 hrs by CCK-8 assay relative to control; type: functional
[3] = target: T2, Dual specificity protein kinase TTK (Homo sapiens) (UniProt P33981); assay: Inhibition of Mps1 (unknown origin) at 1000 nM pretreated for 10 mins followed by substrate addition and measured after 60 mins in presence of ATP by ADP-glo kinase assay relative to control; conditions: time 70.0 min
T2 sequence (whole entry): T1 sequence (P33981 whole entry)

[4] = system: MDA-MB-231; assay: Antiproliferative activity against human MDA-MB-231 cells assessed inhibition of cell growth incubated for 72 hrs by CCK-8 assay; type: functional
[5] = system: MCF7; assay: Antiproliferative activity against human MCF7 cells assessed inhibition of cell growth incubated for 72 hrs by CCK-8 assay relative to control; type: functional
[6] = system: MV4-11; assay: Antiproliferative activity against human MV4-11 cells assessed inhibition of cell growth incubated for 72 hrs by CCK-8 assay relative to control; type: functional
[7] = Antiproliferative activity against human RBE cells assessed inhibition of cell growth incubated for 72 hrs by CCK-8 assay relative to control; type: functional
[8] = system: MDA-MB-468; assay: cells; type: functional, cell-based; conditions: Homo sapiens, MDA-MB-468, 72 h
Description: Antiproliferative activity against human MDA-MB-468 cells assessed inhibition of cell growth incubated for 72 hrs by CCK-8 assay

[9] = system: HCT-116; assay: Antitumor activity against human HCT-116 cells xenografted in mouse assessed as tumor growth inhibition at 6.5 mg/kg, po; type: functional; conditions: read-out: TGI
[10] = system: MDA-MB-468; assay: Antitumor activity against human MDA-MB-468 cells xenografted in BALB/c nude mouse assessed as tumor growth inhibition at 30 mg/kg, iv administered once daily for 21 days; type: functional; conditions: MDA-MB-468, 504 h, time 21 day, read-out: TGI
[11] = Metabolic stability in human liver microsome assessed as half life preincubated for 10 mins followed by NADPH addition and measured upto 60 mins by LC-MS/MS analysis; type: ADME; conditions: liver microsomes, time < 70 min
[12] = Metabolic stability in human microsome assessed as intrinsic clearance preincubated for 10 mins followed by NADPH addition and measured upto 60 mins by LC-MS/MS analysis; type: ADME; conditions: microsomes, time < 70 min
[13] = Metabolic stability in human liver microsome assessed as intrinsic clearance preincubated for 10 mins followed by NADPH addition and measured upto 60 mins by LC-MS/MS analysis; type: ADME; conditions: liver microsomes, time < 70 min, read-out: CLH
[14] = target: T1, Dual specificity protein kinase TTK; assay: Inhibition of MPS1 (unknown origin)

Row | pIC50 [1] | inhibition [3] [%] | SMILES | inhibition at 2 µM [2] [%] | inhibition (INH) [4] [%] | inhibition (INH) [5] [%] | inhibition (INH) [6] [%] | inhibition (INH) [7] [%] | further results
1 | 8.47 | – | CCc1cccc(CC)c1NC(=O)c1ccn(-c2nc(Nc3ccc(N4CCN(C)CC4)cc3OC)nc3[nH]ncc23)c1 | 64.3 | – | – | – | – | –
2 | – | 63.9 | COc1cc(N2CCN(C)CC2)ccc1Nc1nc(OC2CCCC2)c2c(-c3ccc(OC)c(OC)c3)n[nH]c2n1 | 40.7 | 24.33 | 17.07 | -3.55 | 4.83 | –
3 | – | 51.2 | COc1cc(N2CCN(C(C)=O)CC2)ccc1Nc1nc(OC2CCCC2)c2c(-c3ccc(OC)c(OC)c3)n[nH]c2n1 | 81.5 | 26.44 | 17.16 | 8.63 | 39.75 | pIC50 [8]: 6.00
4 | < 6.00 | – | C=CC(=O)Nc1cc(N2CCN(C(C)=O)CC2)ccc1Nc1nc(-n2ccc(C(=O)Nc3c(CC)cccc3CC)c2)c2cn[nH]c2n1 | -2.46 | – | – | – | – | –
5 | 8.40 | – | CCc1cccc(CC)c1NC(=O)c1ccn(-c2nc(Nc3ccc(N4CCN(C(C)=O)CC4)cc3OC)nc3[nH]ncc23)c1 | – | – | – | – | – | pIC50 [8]: 6.43
6 | – | – | Cc1cc(-c2cnn3c(NC[C@H]4C[C@@](C)(O)C4)cc(Oc4cccnc4)nc23)ccc1C(=O)NC1CC1 [LUVIXASERTIB] | – | – | – | – | – | inhibition in vivo at 6.5 mg/kg [9]: 68%
7 | 8.07 | – | COc1cc(N2CCN(C(C)=O)CC2)ccc1Nc1nc(-n2ccc(C(=O)Nc3c(C)cccc3C)c2)c2cn[nH]c2n1 | 34.8 | – | – | – | – | –
8 | < 6.00 | – | C=CC(=O)Nc1cc(NC(=O)CC)ccc1Nc1nc(-n2ccc(C(=O)Nc3c(CC)cccc3CC)c2)c2cn[nH]c2n1 | 5.51 | – | – | – | – | –
9 | – | – | COc1ccc(Oc2cc(NCCC(F)(F)F)c3ncc(-c4ccc(C(=O)NC5CC5)c(C)c4)n3n2)c(F)c1F [BAY-1217389] | – | 61.14 | – | – | – | inhibition in vivo at 30 mg/kg [10]: 67%
10 | – | – | O=C(O)Cc1ccccc1Nc1c(Cl)cccc1Cl [DICLOFENAC] | – | – | – | – | – | half-life [11]: 11 min; microsomal CLint [12]: 126 µL/min/mg; CLint scaled [13]: 113 mL/min/kg
11 | < 6.00 | – | CCc1cccc(CC)c1NC(=O)c1ccn(-c2nc(Nc3ccc(N4CCOCC4)cc3N3CCN(C)CC3)nc3[nH]ncc23)c1 | -1.94 | – | – | – | – | –
12 | – | – | COc1cc(OC2CCN(C)CC2)ccc1Nc1ncc2c(n1)n(C1CCCC1)c(=O)n2C | – | 57.08 | – | – | – | pIC50 [8]: 5.68
13 | 8.21 | – | CCc1cccc(CC)c1N1CCn2cc(-c3nc(Nc4ccc(N5CCOCC5)cc4OC)nc4[nH]ncc34)cc2C1=O | – | – | – | – | – | pIC50 [8]: 6.18
14 | – | 15.2 | COc1ccc(-c2n[nH]c3nc(Nc4ccccc4)nc(OC4CCCC4)c23)cc1OC | 19.9 | 26.44 | 4.54 | -13.46 | 4.28 | –
15 | – | 70.7 | COc1cc(N2CCC(N(C)C)CC2)ccc1Nc1nc(OC2CCCCC2)c2c(-c3ccc(OC)c(OC)c3)n[nH]c2n1 | 68.5 | 66.51 | 25.38 | 20.47 | 28.45 | –
16 | < 6.00 | – | CC#CC(=O)Nc1cc(N2CCOCC2)ccc1Nc1nc(-n2ccc(C(=O)Nc3c(CC)cccc3CC)c2)c2cn[nH]c2n1 | -0.47 | – | – | – | – | –
17 | 8.42 | – | COc1cc(N2CCN(C)CC2)ccc1Nc1nc(-n2ccc(C(=O)Nc3c(C)cccc3C)c2)c2cn[nH]c2n1 | – | – | – | – | – | pIC50 [8]: 6.07
18 | < 6.00 | – | CCC(=O)Nc1cc(N2CCN(C(C)=O)CC2)ccc1Nc1nc(-n2ccc(C(=O)Nc3c(CC)cccc3CC)c2)c2cn[nH]c2n1 | -3.96 | – | – | – | – | –
19 | 8.31 | 84.7 | COc1cc(N2CCC(N(C)C)CC2)ccc1Nc1nc(OC2CCCC2)c2c(-c3ccc(OC)c(OC)c3)n[nH]c2n1 | 94.3 | 72.16 | 25.87 | 21.89 | 36.32 | pIC50 [8]: 5.90
20 | – | – | COCCCNC(=O)c1cc(-c2ccc(OC)c(OC)c2)nc2[nH]nc(-c3ccc(OC)cc3)c12 | – | – | – | – | – | pIC50 [14]: 6.41
21 | < 6.00 | – | C#CC(=O)Nc1cc(N2CCN(C(C)=O)CC2)ccc1Nc1nc(-n2ccc(C(=O)Nc3c(CC)cccc3CC)c2)c2cn[nH]c2n1 | 7.17 | – | – | – | – | –
22 | < 6.00 | – | C=CC(=O)Nc1cc(N2CCN(C(C)=O)CC2)ccc1Nc1nc(-c2cc3n(c2)CCN(c2c(CC)cccc2CC)C3=O)c2cn[nH]c2n1 | 0.38 | – | – | – | – | –
23 | < 6.00 | – | C=CC(=O)Nc1cc(N2CCOCC2)ccc1Nc1nc(-c2cc3n(c2)CCN(c2c(CC)cccc2CC)C3=O)c2cn[nH]c2n1 | – | – | – | – | – | pIC50 [8]: 5.58
24 | < 6.00 | – | CCc1cccc(CC)c1NC(=O)c1ccn(-c2nc(Nc3ccc(N4CCN(C(C)=O)CC4)cc3NC(C)=O)nc3[nH]ncc23)c1 | -2.92 | – | – | – | – | –
25 | – | 35.7 | COc1ccc(-c2n[nH]c3nc(Nc4ccc(N5CCC(N(C)C)CC5)cc4OC)nc(OC4CCCC4)c23)cc1 | 5.57 | 10.57 | 10.76 | -10.86 | 7.85 | –
26 | – | 59.9 | COc1cc(N2CCOCC2)ccc1Nc1nc(OC2CCCC2)c2c(-c3ccc(OC)c(OC)c3)n[nH]c2n1 | 69.7 | 21.19 | 10.48 | -22.73 | 11.97 | pIC50 [8]: 5.68
27 | – | 63.9 | COc1cc(N2CCC(N(C)C)CC2)ccc1Nc1nc(OC2CC2)c2c(-c3ccc(OC)c(OC)c3)n[nH]c2n1 | 30 | 35.24 | 20.26 | -17.18 | 14.2 | –
28 | – | 49.1 | COc1cc(N2CCCCC2)ccc1Nc1nc(OC2CCCC2)c2c(-c3ccc(OC)c(OC)c3)n[nH]c2n1 | -3.15 | 25.74 | 16.66 | -21.2 | 16.61 | –
29 | < 6.00 | – | C=C(F)C(=O)Nc1cc(N2CCN(C(C)=O)CC2)ccc1Nc1nc(-n2ccc(C(=O)Nc3c(CC)cccc3CC)c2)c2cn[nH]c2n1 | -1.41 | – | – | – | – | –
30 | – | 44.5 | COc1cccc(-c2n[nH]c3nc(Nc4ccc(N5CCC(N(C)C)CC5)cc4OC)nc(OC4CCCC4)c23)c1 | 2.34 | 22.71 | 22.33 | -1.1 | 4.83 | –
